Source: patent US20240287052A1, “NOVEL OXAZOLE DERIVATIVE AND PHARMACEUTICAL COMPOSITION FOR PREVENTING OR TREATING ALLERGIC DISEASES COMPRISING THE SAME” (AZCURIS CO., LTD., priority 2021, published 2024)
Like-named read-outs stand apart in the source and are kept apart here.

Biological target: T1, IL33 and ST2 binding (Homo sapiens, UniProt O95760)
T1 sequence (O95760 112-270 limits assumed): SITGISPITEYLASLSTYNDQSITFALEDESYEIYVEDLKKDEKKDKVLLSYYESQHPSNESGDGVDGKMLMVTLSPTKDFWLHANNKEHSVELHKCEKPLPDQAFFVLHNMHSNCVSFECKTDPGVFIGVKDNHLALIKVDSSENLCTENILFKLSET
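Further: plate ELISA with coated Flag-tagged human IL-33 and His-tagged human ST2, bound ST2 detected by anti-His HRP and TMB absorbance at 450 nm, 2 h compound incubation.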

Question: With `O=C(NCC1CCCO1)c1nc(-c2ccc(C(F)(F)F)cc2)oc1-c1ccccc1[N+](=O)[O-]` (stereo not drawn) [Compound 159, 5-(2-Nitrophenyl)-N-((tetrahydrofuran-2-yl)methyl)-2-(4-(trifluoromethyl)phenyl)oxazole-4-carboxamide] as the molecule, how does the inhibition (30 µM) read?
Answer: 2%

Question: What about the inhibition (100 µM) of the same molecule?
Answer: -1%

Question: How did the inhibition (30 µM) turn out when `CN(C)CCNC(=O)c1nc(-c2cccc(OC(F)(F)F)c2)oc1-c1ccccc1[N+](=O)[O-]` [Compound 201, N-(2-(Dimethylamino)ethyl)-5-(2-nitrophenyl)-2-(3-(trifluoromethoxy)phenyl)oxazole-4-carboxamide] was run?
Answer: -7%

Question: What about the inhibition (100 µM) of the same molecule?
Answer: -5%

Question: Which results are given for `CN1CCN(CCNC(=O)c2nc(-c3ccc4ccccc4c3)oc2-c2ccccc2[N+](=O)[O-])CC1` [Compound 260, N-(2-(4-Methylpiperazin-1-yl)ethyl)-2-(naphthalen-2-yl)-5-(2-nitrophenyl)oxazole-4-carboxamide]?
Answer: inhibition (30 µM): 9%; inhibition (100 µM): 23%

Question: `CN1CCN(CCNC(=O)c2nc(-c3cccc(F)c3)oc2-c2ccccc2)CC1` [Compound 221, 2-(3-Fluorophenyl)N-(2-(4-methylpiperazin-1-yl)ethyl)-5-phenyloxazole-4-carboxamide] was tested. Which inhibition (30 µM) did it give?
Answer: -34%

Question: What about the inhibition (100 µM) of the same molecule?
Answer: -21%

Question: `O=C(NCCc1ccc(F)cc1)c1nc(-c2ccc(C(F)(F)F)cc2)oc1-c1ccccc1[N+](=O)[O-]` [Compound 149, N-(4-Fluorophenethyl)-5-(2-nitrophenyl)-2-(4-(trifluoromethyl)phenyl)oxazole-4-carboxamide] was tested. Which inhibition (30 µM) did it give?
Answer: 20%

Question: What about the inhibition (100 µM) of the same molecule?
Answer: 19%

Question: `O=C(c1nc(-c2ccc(C(F)(F)F)cc2)oc1-c1ccccc1[N+](=O)[O-])N1CCN(CCN2CCOCC2)CC1` [Compound 152, (4-(2-Morpholinoethyl)piperazin-1-yl)(5-(2-nitrophenyl)-2-(4-(trifluoromethyl)phenyl)oxazol-4-yl)methanone] was tested. Which inhibition (30 µM) did it give?
Answer: 36%

Question: What about the inhibition (100 µM) of the same molecule?
Answer: 48%

Question: How did the inhibition (30 µM) turn out when `CCOC(=O)c1nc(-c2ccc(C#N)cc2)oc1-c1ccccc1` [Compound 79, Ethyl 2-(4-cyanophenyl)-5-phenyloxazole-4-carboxylate] was run?
Answer: 41%

Question: And the inhibition (100 µM)?
Answer: 107%

Question: With `CS(=O)(=O)NCCNC(=O)c1nc(-c2ccc(C(F)(F)F)cc2)oc1-c1ccccc1[N+](=O)[O-]` [Compound 288, N-(2-(Methylsulfonamido)ethyl)-5-(2-nitrophenyl)-2-(4-(trifluoromethyl)phenyl)oxazole-4-carboxamide] as the molecule, how does the inhibition (30 µM) read?
Answer: 43%

Question: What about the inhibition (100 µM) of the same molecule?
Answer: 50%

Question: With `CCOC(=O)c1nc(-c2cccc(OC(F)(F)F)c2)oc1-c1ccccc1` [Compound 56, Ethyl 5-phenyl-2-(3-(trifluoromethoxy)phenyl)oxazole-4-carboxylate] as the molecule, how does the inhibition (30 µM) read?
Answer: 40%

Question: And the inhibition (100 µM)?
Answer: 93%

Question: For `O=C(NCCN1CCNCC1)c1nc(-c2cc(F)cc(F)c2)oc1-c1ccccc1[N+](=O)[O-]` [Compound 283, 2-(3,5-Difluorophenyl)-5-(2-nitrophenyl)-N-(2-(piperazin-1-yl)ethyl)oxazole-4-carboxamide], which inhibition (30 µM) is on record?
Answer: 31%

Question: And the inhibition (100 µM)?
Answer: 49%

Question: For `COc1ccc(-c2nc(C(=O)N3CCN(CCN(C)C)CC3)c(-c3ccc([N+](=O)[O-])cc3)o2)cc1` [Compound 218, (4-(2-(Dimethylamino)ethyl)piperazin-1-yl)(2-(4-methoxyphenyl)-5-(4-nitrophenyl)oxazol-4-yl)methanone], which inhibition (30 µM) is on record?
Answer: 32%

Question: And the inhibition (100 µM)?
Answer: 39%

Question: With `CCOC(=O)c1nc(-c2ccc(C#N)cc2)oc1-c1ccccc1[N+](=O)[O-]` [Compound 80, Ethyl 2-(4-cyanophenyl)-5-(2-nitrophenyl)oxazole-4-carboxylate] as the molecule, how does the inhibition (30 µM) read?
Answer: 37%

Question: And the inhibition (100 µM)?
Answer: 89%

Question: How did the inhibition (30 µM) turn out when `O=C(c1nc(-c2ccc(C(F)(F)F)cc2)oc1-c1ccccc1[N+](=O)[O-])N1CCN(C2CC2)CC1` [Compound 146, (4-Cyclopropylpiperazin-1-yl)(5-(2-nitrophenyl)-2-(4-(trifluoromethyl)phenyl)oxazol-4-yl)methanone] was run?
Answer: -35%

Question: What about the inhibition (100 µM) of the same molecule?
Answer: -57%

Question: `COc1cccc(-c2nc(C(=O)NCCN(C)C)c(-c3ccccc3)o2)c1` [Compound 208, N-(2-(Dimethylamino)ethyl)-2-(3-methoxyphenyl)-5-phenyloxazole-4-carboxamide] was tested. Which inhibition (30 µM) did it give?
Answer: 19%

Question: And the inhibition (100 µM)?
Answer: 55%

Question: For `O=C(c1ccc(N2CCCCC2)cc1)c1nc(-c2ccc(C(F)(F)F)cc2)oc1-c1ccccc1[N+](=O)[O-]` [Compound 162, (5-(2-Nitrophenyl)-2-(4-(trifluoromethyl)phenyl)oxazol-4-yl)(4-(piperidin-1-yl)phenyl)methanone], which inhibition (30 µM) is on record?
Answer: 3%

Question: And the inhibition (100 µM)?
Answer: 5%

Question: `CCOC(=O)c1nc(-c2ccc(C(F)(F)F)cc2)oc1-c1cccc(SC)c1` [Compound 40, Ethyl 5-(3-(methylthio)phenyl)-2-(4-(trifluoromethyl)phenyl)oxazole-4-carboxylate] was tested. Which inhibition (30 µM) did it give?
Answer: 108%

Question: And the inhibition (100 µM)?
Answer: 115%

Question: What does the source list for `O=C(c1nc(-c2ccc(C(F)(F)F)cc2)oc1-c1ccccc1[N+](=O)[O-])N1CCC(c2ccccc2)CC1` [Compound 145, (5-(2-Nitrophenyl)-2-(4-(trifluoromethyl)phenyl)oxazol-4-yl)(4-phenylpiperidin-1-yl)methanone]?
Answer: inhibition (30 µM): 3%; inhibition (100 µM): 11%

Question: How did the inhibition (30 µM) turn out when `CN(C)CCNC(=O)c1nc(-c2ccc(C#N)cc2)oc1-c1ccccc1[N+](=O)[O-]` [Compound 251, 2-(4-Cyanophenyl)-N-(2-(dimethylamino)ethyl)-5-(2-nitrophenyl)oxazole-4-carboxamide] was run?
Answer: -6%

Question: And the inhibition (100 µM)?
Answer: -21%

Question: Which inhibition (30 µM) does the source give for `CN1CCN(CCNC(=O)c2nc(-c3ccc(N(C)C)cc3)oc2-c2ccccc2[N+](=O)[O-])CC1` [Compound 264, 2-(4-(Dimethylamino)phenyl)-N-(2-(4-methylpiperazin-1-yl)ethyl)-5-(2-nitrophenyl)oxazole-4-carboxamide] here?
Answer: 29%

Question: And the inhibition (100 µM)?
Answer: 35%

Question: With `CC(=O)Nc1ccc(NC(=O)c2nc(-c3ccc(C(F)(F)F)cc3)oc2-c2ccccc2[N+](=O)[O-])cc1` [Compound 175, N-(4-Acetamidophenyl)-5-(2-nitrophenyl)-2-(4-(trifluoromethyl)phenyl)oxazole-4-carboxamide] as the molecule, how does the inhibition (30 µM) read?
Answer: 27%

Question: And the inhibition (100 µM)?
Answer: 53%

Question: Which results are given for `CN(C)CCCN1CCN(C(=O)c2nc(-c3ccc(C(F)(F)F)cc3)oc2-c2ccccc2[N+](=O)[O-])CC1` [Compound 150, (4-(3-(Dimethylamino)propyl)piperazin-1-yl)(5-(2-nitrophenyl)-2-(4-(trifluoromethyl)phenyl)oxazol-4-yl)methanone]?
Answer: inhibition (30 µM): -18%; inhibition (100 µM): 7%

Question: `CN(C)CCNC(=O)c1nc(-c2ccc(F)cc2)oc1-c1ccccc1[N+](=O)[O-]` [Compound 226, N-(2-(Dimethylamino)ethyl)-2-(4-fluorophenyl)-5-(2-nitrophenyl)oxazole-4-carboxamide] was tested. Which inhibition (30 µM) did it give?
Answer: -25%

Question: What about the inhibition (100 µM) of the same molecule?
Answer: -8%

Question: `CN1CCN(CCNC(=O)c2nc(-c3ccc(N(C)C)cc3)oc2-c2ccccc2)CC1` [Compound 262, 2-(4-(Dimethylamino)phenyl)-N-(2-(4-methylpiperazin-1-yl)ethyl)-5-phenyloxazole-4-carboxamide] was tested. Which inhibition (30 µM) did it give?
Answer: 14%

Question: What about the inhibition (100 µM) of the same molecule?
Answer: 33%

Question: `COc1cccc(-c2nc(C(=O)NCCN(C)C)c(-c3ccccc3[N+](=O)[O-])o2)c1` [Compound 210, N-(2-(Dimethylamino)ethyl)-2-(3-methoxyphenyl)-5-(2-nitrophenyl)oxazole-4-carboxamide] was tested. Which inhibition (30 µM) did it give?
Answer: -11%

Question: And the inhibition (100 µM)?
Answer: -19%

Question: What does the source list for `COc1ccc(-c2nc(C(=O)NCCN(C)C)c(-c3ccccc3)o2)cc1` [Compound 212, N-(2-(Dimethylamino)ethyl)-2-(4-methoxyphenyl)-5-phenyloxazole-4-carboxamide]?
Answer: inhibition (30 µM): -26%; inhibition (100 µM): -22%

Question: Which results are given for `CCOC(=O)c1nc(-c2ccc(C(F)(F)F)cc2)oc1-c1ccc(NC(C)=O)cc1` [Compound 107, Ethyl 5-(4-acetamidophenyl)-2-(4-(trifluoromethyl)phenyl)oxazole-4-carboxylate]?
Answer: inhibition (30 µM): -15%; inhibition (100 µM): -9%

Question: With `CCOC(=O)c1nc(-c2ccc(OC(F)(F)F)cc2)oc1-c1ccccc1` [Compound 58, Ethyl 5-phenyl-2-(4-(trifluoromethoxy)phenyl)oxazole-4-carboxylate] as the molecule, how does the inhibition (30 µM) read?
Answer: 44%

Question: And the inhibition (100 µM)?
Answer: 105%

Question: For `CN(C)CCNC(=O)c1nc(-c2ccc(C(C)(C)C)cc2)oc1-c1ccccc1` [Compound 265, 2-(4-(tert-Butyl)phenyl)-N-(2-(dimethylamino)ethyl)-5-phenyloxazole-4-carboxamide], which inhibition (30 µM) is on record?
Answer: 5%

Question: And the inhibition (100 µM)?
Answer: 14%

Question: How did the inhibition (30 µM) turn out when `O=C(NCc1ccncc1)c1nc(-c2ccc(C(F)(F)F)cc2)oc1-c1ccccc1[N+](=O)[O-]` [Compound 141, 5-(2-Nitrophenyl)-N-(pyridin-4-ylmethyl)-2-(4-(trifluoromethyl)phenyl)oxazole-4-carboxamide] was run?
Answer: -11%

Question: What about the inhibition (100 µM) of the same molecule?
Answer: -3%

Question: With `CN(C)CCNC(=O)c1nc(-c2ccc(Cl)cc2)oc1-c1ccccc1` [Compound 244, 2-(4-Chlorophenyl)-N-(2-(dimethylamino)ethyl)-5-phenyloxazole-4-carboxamide] as the molecule, how does the inhibition (30 µM) read?
Answer: 0%

Question: And the inhibition (100 µM)?
Answer: 38%

Question: How did the inhibition (30 µM) turn out when `COc1ccc(CNC(=O)c2nc(-c3ccc(C(F)(F)F)cc3)oc2-c2ccccc2[N+](=O)[O-])cc1` [Compound 166, N-(4-Methoxybenzyl)-5-(2-nitrophenyl)-2-(4-(trifluoromethyl)phenyl)oxazole-4-carboxamide] was run?
Answer: 14%

Question: What about the inhibition (100 µM) of the same molecule?
Answer: 5%

Question: `CCOC(=O)c1nc(-c2cccc(C(F)(F)F)c2)oc1-c1ccccc1[N+](=O)[O-]` [Compound 30, Ethyl 5-(2-nitrophenyl)-2-(3-(trifluoromethyl)phenyl)oxazole-4-carboxylate] was tested. Which inhibition (30 µM) did it give?
Answer: 42%

Question: What about the inhibition (100 µM) of the same molecule?
Answer: 102%

Question: With `O=C(NCCN1CCNCC1)c1nc(-c2ccc(C(F)(F)F)cc2)oc1-c1ccccc1[N+](=O)[O-]` [Compound 281, 5-(2-nitrophenyl)-N-(2-(piperazin-1-yl)ethyl)-2-(4-(trifluoromethyl)phenyl)oxazole-4-carboxamide] as the molecule, how does the inhibition (30 µM) read?
Answer: 73%

Question: What about the inhibition (100 µM) of the same molecule?
Answer: 71%
